According to patent US20170190671A1, “BIS(ARYL)CATECHOL DERIVATIVES AS HERBICIDES” (E I DU PONT DE NEMOURS AND COMPANY, priority 2014, published 2017):

Tests used:
[1] = test system: barnyardgrass (Echinochloa crus-galli); assay: Test B flooded paddy; type: in vivo; conditions: Echinochloa crus-galli, 336 h; 250 g ai/ha, Flood, 13 to 15 days, scale 0 (no effect) to 100 (complete control); read-out: Plant response rating, Barnyardgrass
Method in brief: (§1)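 Flooded 3 cm over soil; compound into paddy water; depth kept constant. Greenhouse 13–15 d.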

[2] = test system: ducksalad (Heteranthera limosa); assay: Test B flooded paddy; type: in vivo; conditions: Heteranthera limosa, 336 h; 250 g ai/ha, Flood, 13 to 15 days, scale 0 (no effect) to 100 (complete control); read-out: Plant response rating, Ducksalad
Method in brief: as §1

rice (Oryza sativa) = assay: Test B flooded paddy; type: in vivo; conditions: Oryza sativa, 336 h; 250 g ai/ha, Flood, 13 to 15 days, scale 0 (no effect) to 100 (complete control); read-out: Plant response rating, Rice
Method in brief: as §1

[3] = test system: sedge, umbrella (small-flower umbrella sedge, Cyperus difformis); assay: Test B flooded paddy; type: in vivo; conditions: Cyperus difformis, 336 h; 250 g ai/ha, Flood, 13 to 15 days, scale 0 (no effect) to 100 (complete control); read-out: Plant response rating, Sedge, Umbrella
Method in brief: as §1

[4] = test system: barnyardgrass (Echinochloa crus-galli); assay: Test A preemergence; type: in vivo; conditions: Echinochloa crus-galli, pre-emergence, 240 h; for pest or weed control at 125 g/ha: 125 g ai/ha
Method in brief: (§2)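 Visual injury scored 0–100 (100 = complete control) against untreated controls about 10 days after treatment in a greenhouse. Test chemicals, formulated with surfactant in non-phytotoxic solvent, were sprayed on soil preemergence or on 2-10 cm, one- to two-leaf plants postemergence.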

corn (Zea mays) [5] = assay: Test A preemergence; type: in vivo; conditions: 0 to 100 scale
Method in brief: as §2

[6] = test system: giant foxtail (Setaria faberii); assay: Test A preemergence; type: in vivo; conditions: Setaria faberi, pre-emergence, 240 h; for pest or weed control at 125 g/ha: 125 g ai/ha
Method in brief: as §2

[7] = test system: large (Lg) crabgrass (Digitaria sanguinalis); assay: Test A preemergence; type: in vivo; conditions: 0 to 100 scale
Method in brief: as §2

[8] = test system: morningglory (Ipomoea spp.); assay: Test A preemergence; type: in vivo; conditions: 0 to 100 scale
Method in brief: as §2

[9] = test system: pigweed (Amaranthus retroflexus); assay: Test A preemergence; type: in vivo; conditions: Amaranthus retroflexus, pre-emergence, 240 h; for pest or weed control at 125 g/ha: 125 g ai/ha
Method in brief: as §2

[10] = test system: velvetleaf (Abutilon theophrasti); assay: Test A preemergence; type: in vivo; conditions: 0 to 100 scale
Method in brief: as §2

[11] = test system: wheat (Triticum aestivum); assay: Test A preemergence; type: in vivo; conditions: 0 to 100 scale
Method in brief: as §2

[12] = test system: barnyardgrass (Echinochloa crus-galli); assay: Test A postemergence; type: in vivo; conditions: Echinochloa crus-galli, post-emergence, 240 h, 0 to 100 scale, read-out: Plant response rating, Barnyardgrass; for pest or weed control at 125 g/ha: 125 g ai/ha
Method in brief: as §2

corn (Zea mays) [13] = assay: Test A postemergence; type: in vivo; conditions: Zea mays, post-emergence, 240 h, 0 to 100 scale; for Corn plant response rating (crop injury, 0 = no effect, 100 = complete kill) at 125 g/ha: 125 g ai/ha
Method in brief: as §2

[14] = test system: giant foxtail (Setaria faberii); assay: Test A postemergence; type: in vivo; conditions: Setaria faberi, post-emergence, 240 h, 0 to 100 scale, read-out: Plant response rating, Foxtail, Giant; for pest or weed control at 125 g/ha: 125 g ai/ha
Method in brief: as §2

[15] = test system: large (Lg) crabgrass (Digitaria sanguinalis); assay: Test A postemergence; type: in vivo; conditions: 0 to 100 scale
Method in brief: as §2

[16] = test system: morningglory (Ipomoea spp.); assay: Test A postemergence; type: in vivo; conditions: 0 to 100 scale
Method in brief: as §2

[17] = test system: pigweed (Amaranthus retroflexus); assay: Test A postemergence; type: in vivo; conditions: Amaranthus retroflexus, post-emergence, 240 h, 0 to 100 scale, read-out: Plant response rating, Pigweed; for pest or weed control at 125 g/ha: 125 g ai/ha
Method in brief: as §2

[18] = test system: velvetleaf (Abutilon theophrasti); assay: Test A postemergence; type: in vivo; conditions: 0 to 100 scale
Method in brief: as §2

[19] = test system: wheat (Triticum aestivum); assay: Test A postemergence; type: in vivo; conditions: Triticum aestivum, post-emergence, 240 h, 0 to 100 scale, read-out: Plant response rating, Wheat; for plant injury at 125 g/ha: 125 g ai/ha
Method in brief: as §2

[20] = test system: Italian ryegrass (Lolium multiflorum); assay: Test A preemergence; type: in vivo; conditions: Lolium multiflorum, pre-emergence, 240 h, 0 to 100 scale (0 no effect, 100 complete control), read-out: Ryegrass, Italian plant response rating
Method in brief: as §2

kochia (Kochia scoparia) [21] = assay: Test A preemergence; type: in vivo; conditions: Bassia scoparia, pre-emergence, 240 h, 0 to 100 scale (0 no effect, 100 complete control), read-out: Kochia plant response rating
Method in brief: as §2

[22] = test system: ragweed (common ragweed, Ambrosia elatior); assay: Test A preemergence; type: in vivo; conditions: Ambrosia artemisiifolia, pre-emergence, 240 h, 0 to 100 scale (0 no effect, 100 complete control), read-out: Ragweed plant response rating
Method in brief: as §2

[23] = test system: Italian ryegrass (Lolium multiflorum); assay: Test A postemergence; type: in vivo; conditions: Lolium multiflorum, post-emergence, 240 h, 0 to 100 scale, read-out: Plant response rating, Ryegrass, Italian
Method in brief: as §2

[24] = test system: blackgrass (Alopecurus myosuroides); assay: Test A postemergence; type: in vivo; conditions: Alopecurus myosuroides, post-emergence, 240 h, 0 to 100 scale, read-out: Plant response rating, Blackgrass
Method in brief: as §2

[25] = test system: galium (catchweed bedstraw, Galium aparine); assay: Test A postemergence; type: in vivo; conditions: Galium, post-emergence, 240 h, 0 to 100 scale, read-out: Plant response rating, Galium
Method in brief: as §2

kochia (Kochia scoparia) [26] = assay: Test A postemergence; type: in vivo; conditions: Bassia scoparia, post-emergence, 240 h, 0 to 100 scale, read-out: Plant response rating, Kochia
Method in brief: as §2

[27] = test system: ragweed (common ragweed, Ambrosia elatior); assay: Test A postemergence; type: in vivo; conditions: Ambrosia artemisiifolia, post-emergence, 240 h, 0 to 100 scale, read-out: Plant response rating, Ragweed
Method in brief: as §2

[28] = 0 to 100 scale, read-out: Plant response rating, Barnyardgrass

With `N#Cc1cccc(Oc2ncc(F)cn2)c1Oc1ncc(F)cn1` [Compound 2, 2,3-bis[(5-fluoro-2-pyrimidinyl)oxy]benzonitrile] the pest or weed control at 250 g/ha [1] was 20%, the pest or weed control at 250 g/ha [2] was 70% and the plant injury at 250 g/ha (rice (Oryza sativa)) was 15%. The pest or weed control at 250 g/ha [3] was 60%, the pest or weed control at 125 g/ha [4, 28] was 20% and the pest or weed control at 500 g/ha ([4]; 500 g ai/ha, 0 to 100 scale, read-out: Plant response rating, Barnyardgrass) was 100%. The “Plant response rating, Corn” value (corn (Zea mays) [5]; 125 g ai/ha) was 20, the “Plant response rating, Corn” value (corn (Zea mays) [5]; 500 g ai/ha) was 60 and the pest or weed control at 125 g/ha ([6]; 0 to 100 scale, read-out: Plant response rating, Foxtail, Giant) was 100%. The pest or weed control at 500 g/ha ([6]; 500 g ai/ha, 0 to 100 scale, read-out: Plant response rating, Foxtail, Giant) was 100%, the “Plant response rating, Crabgrass, Large” value ([7]; 125 g ai/ha) was 100 and the “Plant response rating, Crabgrass, Large” value ([7]; 500 g ai/ha) was 100. For the same compound, the “Plant response rating, Morningglory” value ([8]; 125 g ai/ha) was 50, the “Plant response rating, Morningglory” value ([8]; 500 g ai/ha) was 100 and the pest or weed control at 125 g/ha ([9]; 0 to 100 scale, read-out: Plant response rating, Pigweed) was 100%. For the same compound, the pest or weed control at 500 g/ha ([9]; 500 g ai/ha, 0 to 100 scale, read-out: Plant response rating, Pigweed) was 100%, the “Plant response rating, Velvetleaf” value ([10]; 125 g ai/ha) was 40 and the “Plant response rating, Velvetleaf” value ([10]; 500 g ai/ha) was 100. For the same compound, the “Plant response rating, Wheat” value ([11]; 125 g ai/ha) was 20, the “Plant response rating, Wheat” value ([11]; 500 g ai/ha) was 30 and the pest or weed control at 125 g/ha [12] was 20%. For the same compound, the pest or weed control at 500 g/ha ([12]; 500 g ai/ha) was 90%, the Corn plant response rating (crop injury, 0 = no effect, 100 = complete kill) at 125 g/ha (corn (Zea mays) [13]) was 0% and the Corn plant response rating (crop injury, 0 = no effect, 100 = complete kill) at 500 g/ha (corn (Zea mays) [13]; 500 g ai/ha) was 90%. The pest or weed control at 125 g/ha [14] was 40%, the pest or weed control at 500 g/ha ([14]; 500 g ai/ha) was 100% and the “Plant response rating, Crabgrass, Large” value ([15]; 125 g ai/ha) was 30. For the same compound, the “Plant response rating, Crabgrass, Large” value ([15]; 500 g ai/ha) was 100, the “Plant response rating, Morningglory” value ([16]; 125 g ai/ha) was 60 and the “Plant response rating, Morningglory” value ([16]; 500 g ai/ha) was 90. The pest or weed control at 125 g/ha [17] was 90%, the pest or weed control at 500 g/ha ([17]; 500 g ai/ha) was 100% and the “Plant response rating, Velvetleaf” value ([18]; 125 g ai/ha) was 70. For the same compound, the “Plant response rating, Velvetleaf” value ([18]; 500 g ai/ha) was 90, the plant injury at 125 g/ha [19] was 20% and the plant injury at 500 g/ha ([19]; 500 g ai/ha) was 90%.
`Fc1cnc(Oc2c(F)ccc(F)c2Oc2ncc(Cl)cn2)nc1` [Compound 28] showed a pest or weed control at 31 g/ha ([20]; 31 g ai/ha) of 0%, a pest or weed control at 125 g/ha ([20]; 125 g ai/ha) of 0% and a pest or weed control at 31 g/ha ([4]; 31 g ai/ha, 0 to 100 scale (0 no effect, 100 complete control), read-out: Barnyardgrass plant response rating) of 0%. The pest or weed control at 125 g/ha [4, 28] was 10%, the pest or weed control at 31 g/ha ([6]; 31 g ai/ha, 0 to 100 scale (0 no effect, 100 complete control), read-out: Foxtail, Giant plant response rating) was 10% and the pest or weed control at 125 g/ha ([6]; 0 to 100 scale (0 no effect, 100 complete control), read-out: Foxtail, Giant plant response rating) was 40%. It also gave a pest or weed control at 31 g/ha (kochia (Kochia scoparia) [21]; 31 g ai/ha) of 0%, a pest or weed control at 125 g/ha (kochia (Kochia scoparia) [21]; 125 g ai/ha) of 20% and a pest or weed control at 31 g/ha ([9]; 31 g ai/ha, 0 to 100 scale (0 no effect, 100 complete control), read-out: Pigweed plant response rating) of 50%. For the same compound, the pest or weed control at 125 g/ha ([9]; 0 to 100 scale (0 no effect, 100 complete control), read-out: Pigweed plant response rating) was 80%, the pest or weed control at 31 g/ha ([22]; 31 g ai/ha) was 0% and the pest or weed control at 125 g/ha ([22]; 125 g ai/ha) was 0%. For the same compound, the pest or weed control at 31 g/ha ([23]; 31 g ai/ha) was 0%, the pest or weed control at 125 g/ha ([23]; 125 g ai/ha) was 0% and the pest or weed control at 31 g/ha ([12]; 31 g ai/ha) was 0%. It also gave a pest or weed control at 125 g/ha [12] of 0%, a pest or weed control at 31 g/ha ([24]; 31 g ai/ha) of 0% and a pest or weed control at 125 g/ha ([24]; 125 g ai/ha) of 20%. For the same compound, the Corn plant response rating (crop injury, 0 = no effect, 100 = complete kill) at 31 g/ha (corn (Zea mays) [13]; 31 g ai/ha) was 0%, the Corn plant response rating (crop injury, 0 = no effect, 100 = complete kill) at 125 g/ha (corn (Zea mays) [13]) was 0% and the pest or weed control at 31 g/ha ([25]; 31 g ai/ha) was 20%. For the same compound, the pest or weed control at 125 g/ha ([25]; 125 g ai/ha) was 70%, the pest or weed control at 31 g/ha ([14]; 31 g ai/ha) was 0% and the pest or weed control at 125 g/ha [14] was 20%. It also gave a pest or weed control at 31 g/ha (kochia (Kochia scoparia) [26]; 31 g ai/ha) of 30%, a pest or weed control at 125 g/ha (kochia (Kochia scoparia) [26]; 125 g ai/ha) of 70% and a pest or weed control at 31 g/ha ([17]; 31 g ai/ha) of 50%. It also gave a pest or weed control at 125 g/ha [17] of 60%, a pest or weed control at 31 g/ha ([27]; 31 g ai/ha) of 10% and a pest or weed control at 125 g/ha ([27]; 125 g ai/ha) of 30%. For the same compound, the plant injury at 31 g/ha ([19]; 31 g ai/ha) was 0%, the plant injury at 125 g/ha [19] was 0% and the melting point was 94 to 98 °C.
